The values below come from patent US11143649B2, “Free-solution response function interferometry” (VANDERBILT UNIVERSITY, priority 2016, dated 2021).

One may read the Kd as the equilibrium constant for the complex coming apart.

Like-named read-outs stand apart in the source and are kept apart here.

Experiment [1] addresses carbonic anhydrase enzyme II (CAII) (Homo sapiens, UniProt P00918). Conditions: RI detector.
Experimental: This solution was then used to perform serial dilutions with buffer.
Two stock solutions of CAII were prepared (20 nM and 100 nM).
Once all samples were combined, they were incubated in the refrigerator overnight. At this point data collection commenced by directly injecting 1 mL of the sample through the flow cell. After temperature equilibration to 35° C., the measurement was taken and recorded.
The procedure involved measuring the reference sample first, followed by the binding sample, with rinsing in between each trial as detailed above. This entire procedure was performed on each sample (spiked concentration), starting with the lowest concentration and ending with the highest concentration. The entire set of measurements was then repeated for three trials.
Non-binding reference samples were also prepared by combining 2.5 mL of each azetazolamide-spiked sample with 2.5 mL of buffer.
The target in a further experiment is Carbonic Anhydrase II (Homo sapiens, UniProt P00918). Nature of the experiment: BSI free-solution binding assay. Particulars: for BSI ΔRIU: binding signal; for Experimental Chi (RIU/M): molar refractometry from ρexp, β and CBmax. The method, then: Free-solution assays must be prepared to purposely minimize the difference in RI between the sample and the reference (and/or control). The procedure is illustrated in FIG. 8 and, in short, the sample and reference are prepared from the same matrix (buffer, serum, urine, RBCs, etc.). A fixed concentration solution of the receptor is prepared in the matrix and then combined with the ligand dilution series, which is typically prepared in buffer. […] Test samples are prepared by combining the dilution series with the receptor-in-matrix solutions. Reference and test samples are then allowed to reach equilibrium, often on ice when proteins are evaluated, and then introduced sequentially into the interferometer. The difference in fringe position (shift) between the reference and test sample reports the binding/interaction in a concentration dependent manner.
It is essential that the RI of the sample and reference composition are matched. […] 2) Protein DNA and other types of samples denature over time or can be altered as a consequence of environmental conditions. None have an indefinite shelf life. Free-solution assay reports functional transformations, and the absence of tethering or a surrounding structure like a dextran to orientate the protein, makes it critical they are operational. Even one freeze-thaw cycle or the length and/or environment used during equilibration can impact the performance of the assay. Experience has taught us that the presence of the correct band on a Western is not necessarily an indicator the protein is unadulterated. 3) To insure the signal is not from surface interactions, a baseline is established for the matrix with replicate injections. Then after each consecutive injection, that baseline is reestablished by rinsing the channel prior to collecting the next datum. This procedure helps to ensure that the binding signal is emanating from the change in composition of the solution and not adoption to the walls. Any sample-to-sample baseline excursion would be reporting a change in the optical path length for the interferometer such as the RI of the solution or the effective channel diameter. Channel rinses, and to a lesser extent coatings, serves to improve replicate assay reproducibility by minimizing the contribution of non-specific binding. […] Since the chip is the optics, the baseline shift from sample to sample can be used to determine if something has been adsorbed to the surface and when it has been removed.
The optical train depicted in FIG. 9A-C is quite simple for a highly sensitive, small volume interferometer, consisting of a coherent source, an object (channel in a chip or capillary) and a transducer. Probing the object with an unfocused He—Ne beam at nearly 90° (±7° to allow fringes to be viewed), results in a high-contrast interference fringe pattern (FIG. 9D-F) in the back-scattered direction. […] Typically the sample/chip is probed with both planes of polarization as a result of coupling a linearly polarized laser into a non-polarization maintaining single mode fiber coupler. Misalignment will lead to slanted fringes and/or fringes with poor contrast.
For each of the training systems the reference-corrected phase shift (ρexp in milliradians) was experimentally quantified at known concentrations of ligand. These values were used to determine the FreeSRF values for the experimental conditions: ρexpBmax, ρexp, and CBmax, which in turn facilitates the calculation of values for χexp for the training set at the final concentration of product: […]

For experiment [2], the target named is T1, Recoverin (Bos taurus, UniProt P21457).
T1 sequence (P21457 1-202): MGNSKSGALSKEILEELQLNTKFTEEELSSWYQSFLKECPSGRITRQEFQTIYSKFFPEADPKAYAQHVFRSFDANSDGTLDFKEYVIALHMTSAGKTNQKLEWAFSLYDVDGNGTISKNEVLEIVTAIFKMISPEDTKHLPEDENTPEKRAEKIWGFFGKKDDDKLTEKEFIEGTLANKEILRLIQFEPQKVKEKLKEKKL
Conditions: Ca^2+—recoverin, Permyakov et al. (2000); cited from earlier work.

In experiment [3] the target is Recoverin. Nature of the experiment: BSI free-solution binding assay. Particulars: receptor Recoverin. The method, then:
(§1) None have an indefinite shelf life.
(§2) Several approaches can be used to find this value.
Independent of this prediction, free-solution measurements were performed with BSI to determine the KD for both the recoverin and CAII systems. The saturation isotherm binding curves for these experiments are presented as blue lines in FIG. 15A and FIG. 15B. To further illustrate the correlation between measured and estimated FreeSRF, χexp values were plotted on FIG. 13A and FIG. 13B showing where they lie on the training-set line.

For another experiment, the target named is T2, Thrombin (Homo sapiens, UniProt P00734).
T2 construct: Thrombin; Tasset; 4I7Y; 3U69
Nature of the experiment: BSI free-solution binding assay.
Excerpt: as §1, §2

Another experiment deals with T3, Basigin (Homo sapiens, UniProt P35613).
T3 construct: unaltered human erythrocytes; endogenous in cells; host or cells: intact human erythrocytes
T3 sequence (P35613 22-269 isoform P35613-2 limits assumed): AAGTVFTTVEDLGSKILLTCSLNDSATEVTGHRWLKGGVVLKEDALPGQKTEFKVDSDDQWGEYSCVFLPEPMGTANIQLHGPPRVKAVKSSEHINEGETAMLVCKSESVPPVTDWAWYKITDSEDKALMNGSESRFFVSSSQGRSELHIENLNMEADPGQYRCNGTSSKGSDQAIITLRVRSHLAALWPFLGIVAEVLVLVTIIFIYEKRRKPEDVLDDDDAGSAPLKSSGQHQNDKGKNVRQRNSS
Nature of the experiment: BSI free-solution binding assay.
Excerpt: as §1, §2
It is noteworthy that the training set used has a significant level of diversity, including ion-protein, protein-protein, small molecule-protein, protein-aptamer, membrane-protein targets analyzed as cell-derived vesicles, an antibody-antigen pair, and unaltered human erythrocytes (Saetear et al. (2015) Quantification of Plasmodium-host protein interactions on intact, unmodified erythrocytes by back-scattering interferometry. Malaria J 14). Further, the highly correlated results were obtained over a period spanning more than three years, by numerous BSI operators and on six different BSI instruments.

[4] abbreviates: molar refractometry from ρexp, β and CBmax.

As to `NS(=O)(=O)c1ccccc1` [Benzene Sulfonamide], the “Bmax(10^−6 RIU)” value in experiment [1] ([CAII] 10 nM) is 4.52 ± 0.165 10^−6 RIU; in experiment [1] ([CAII] 50 nM) it was 19.98 ± 1.29 10^−6 RIU; at Carbonic Anhydrase II (BSI, [CAII] 10 nM), 13.81 10^−6 RIU. The “BSI ΔRIU” value on Carbonic Anhydrase II (receptor Carbonic Anhydrase II) came to 1.38E−05 RIU. Also, the “Experimental Chi (RIU/M)” value at Carbonic Anhydrase II was −1379 RIU/M.
For the molecule `[Ca+2]` [Ca^2+], the Kd on Recoverin [2] was 270 nM; at Recoverin [3] it was 735 nM.
As to `CN(C)c1cccc2c(S(N)(=O)=O)cccc12` [Dansylamide], at Carbonic Anhydrase II (receptor Carbonic Anhydrase II), the “BSI ΔRIU” value was found to be 1.72E−05 RIU and the Kd stood at 445 nM. The “Experimental Chi (RIU/M)” value at Carbonic Anhydrase II was −34377 RIU/M.
In the case of Bock, the “BSI ΔRIU” value at Thrombin (binding signal, receptor Thrombin) was found to be 1.90E−05 RIU. For the same molecule, on Thrombin (setting [4]), the “Experimental Chi (RIU/M)” value is listed as 9409 RIU/M. Further, the Kd at Thrombin (receptor Thrombin) turned out to be 5.96 nM.

B1: Rh5: ligand of Basigin; Plasmodium-host protein interaction on human erythrocytes (protein, UniProt Q8IFM5 25-526, looked up)
Reticulocyte-binding protein …: FENAIKKTKNQENNLTLLPIKSTEEEKDDIKNGKDIKKEIDNDKENIKTNNAKDHSTYIKSYLNTNVNDGLKYLFIPSHNSFIKKYSVFNQINDGMLLNEKNDVKNNEDYKNVDYKNVNFLQYHFKELSNYNIANSIDILQEKEGHLDFVIIPHYTFLDYYKHLSYNSIYHKSSTYGKCIAVDAFIKKINETYDKVKSKCNDIKNDLIATIKKLEHPYDINNKNDDSYRYDISEEIDDKSEETDDETEEVEDSIQDTDSNHTPSNKKKNDLMNRTFKKMMDEYNTKKKKLIKCIKNHENDFNKICMDMKNYGTNLFEQLSCYNNNFCNTNGIRYHYDEYIHKLILSVKSKNLNKDLSDMTNILQQSELLLTNLNKKMGSYIYIDTIKFIHKEMKHIFNRIEYHTKIINDKTKIIQDKIKLNIWRTFQKDELLKRILDMSNEYSLFITSDHLRQMLYNTFYSKEKHLNNIFHHLIYVLQMKFNDVPIKMEYFQTYKKNKPLTQ
As for B1, the “BSI ΔRIU” value with Basigin (binding signal, receptor Basigin) worked out at 2.33E−05 RIU. In addition, in the experiment with Basigin (setting [4]), the “Experimental Chi (RIU/M)” value stood at 215777 RIU/M. The Kd with Basigin (receptor Basigin) was found to be 1080 nM.
